Experimental data published in ChEMBL document CHEMBL1909046, “DrugMatrix in vitro pharmacology data”.

How the values were obtained:
Neutrophil elastase = biological target: T1, Neutrophil elastase (Homo sapiens, UniProt P08246); type: tissue-based;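 further: inhibition of neutrophil elastase enzyme activity, measured with a p-nitroanilide-linked peptide substrate; in other assays of this panel Not Active means under 50% inhibition at 10 µM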
T1 sequence (P08246 whole entry): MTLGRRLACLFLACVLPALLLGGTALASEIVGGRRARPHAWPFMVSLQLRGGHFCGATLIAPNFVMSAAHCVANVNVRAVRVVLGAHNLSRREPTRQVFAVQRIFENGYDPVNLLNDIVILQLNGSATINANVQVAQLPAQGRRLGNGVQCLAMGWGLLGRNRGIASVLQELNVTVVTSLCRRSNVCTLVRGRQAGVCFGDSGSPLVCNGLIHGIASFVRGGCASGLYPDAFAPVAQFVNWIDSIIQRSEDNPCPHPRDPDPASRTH

Nitric oxide synthase 1 = Nitric oxide synthase 1 (Rattus norvegicus, UniProt P29476); type: tissue-based, Cerebellum; further: in other assays of this panel Not Active means under 50% inhibition at 10 µM
[1] = biological target: Tyrosine-protein kinase Fyn (Homo sapiens, UniProt P06241); test: biochemical; type: cell-based, Insect cells; details: insect cells;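 further: enzymatic inhibition of Fyn kinase activity measured with Poly(Glu:Tyr) as the phosphorylation substrate; in other assays of this panel Not Active means under 50% inhibition at 10 µM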
Estrogen receptor = biological target: T2, Estrogen receptor (Homo sapiens, UniProt P03372); details: sf9; further: in other assays of this panel Not Active means under 50% inhibition at 10 µM
T2 sequence (P03372 whole entry): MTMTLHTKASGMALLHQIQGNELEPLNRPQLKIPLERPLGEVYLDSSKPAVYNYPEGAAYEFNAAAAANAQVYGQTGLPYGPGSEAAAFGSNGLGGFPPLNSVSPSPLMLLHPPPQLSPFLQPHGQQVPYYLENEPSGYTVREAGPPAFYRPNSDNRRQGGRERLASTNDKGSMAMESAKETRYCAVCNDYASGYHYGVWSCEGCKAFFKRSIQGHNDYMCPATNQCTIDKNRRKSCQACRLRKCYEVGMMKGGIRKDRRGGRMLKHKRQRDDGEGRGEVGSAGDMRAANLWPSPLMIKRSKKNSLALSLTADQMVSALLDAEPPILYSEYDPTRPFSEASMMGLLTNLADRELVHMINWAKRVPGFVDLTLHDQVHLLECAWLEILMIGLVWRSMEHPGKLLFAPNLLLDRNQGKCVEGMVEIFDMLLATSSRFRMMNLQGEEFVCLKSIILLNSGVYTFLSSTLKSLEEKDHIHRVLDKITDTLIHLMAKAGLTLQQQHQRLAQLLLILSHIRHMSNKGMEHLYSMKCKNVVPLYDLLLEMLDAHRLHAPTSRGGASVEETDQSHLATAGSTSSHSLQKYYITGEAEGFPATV

Melanocortin receptor 4 = Melanocortin receptor 4 (Homo sapiens, UniProt P32245); type: cell membranes, Membrane; details: hek293; further: in other assays of this panel Not Active means under 50% inhibition at 10 µM
Endothelin-1 receptor = biological target: T3, Endothelin-1 receptor (Homo sapiens, UniProt P25101); type: cell membranes, CHO-K1, Membrane; details: cho-k1; further: in other assays of this panel Not Active means under 50% inhibition at 10 µM
T3 sequence (P25101 whole entry): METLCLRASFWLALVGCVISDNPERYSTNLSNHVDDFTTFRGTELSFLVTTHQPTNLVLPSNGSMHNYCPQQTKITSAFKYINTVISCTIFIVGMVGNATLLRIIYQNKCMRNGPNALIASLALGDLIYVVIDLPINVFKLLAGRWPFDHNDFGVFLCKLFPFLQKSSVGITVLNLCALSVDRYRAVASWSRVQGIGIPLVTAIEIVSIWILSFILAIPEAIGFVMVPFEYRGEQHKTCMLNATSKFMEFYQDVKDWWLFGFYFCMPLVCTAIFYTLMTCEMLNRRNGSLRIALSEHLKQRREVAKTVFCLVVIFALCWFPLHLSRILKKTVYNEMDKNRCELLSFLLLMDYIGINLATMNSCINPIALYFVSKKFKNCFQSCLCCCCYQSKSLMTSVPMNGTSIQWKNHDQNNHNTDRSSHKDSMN

Cathepsin G = biological target: T4, Cathepsin G (Homo sapiens, UniProt P08311); type: tissue-based; details: neutrophil
T4 sequence (P08311 whole entry): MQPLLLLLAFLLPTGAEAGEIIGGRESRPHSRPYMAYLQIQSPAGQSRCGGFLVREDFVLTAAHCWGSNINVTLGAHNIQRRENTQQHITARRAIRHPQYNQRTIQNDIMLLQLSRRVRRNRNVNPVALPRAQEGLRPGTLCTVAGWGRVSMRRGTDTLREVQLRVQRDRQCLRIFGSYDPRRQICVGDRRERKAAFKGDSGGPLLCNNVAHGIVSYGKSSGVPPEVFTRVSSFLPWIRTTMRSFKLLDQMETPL

[2] = DRUGMATRIX: Glutamate, Kainate radioligand binding (ligand: [3H] Kainic acid); type: cell membranes, Rattus norvegicus, Wistar, Brain, Membrane; details: Not Active = under 50% inhibition at 10 µM
Leukotriene C4 synthase = biological target: T5, Leukotriene C4 synthase (Cavia porcellus, UniProt A6XA80); type: tissue-based, Lung
T5 sequence (A6XA80 whole entry): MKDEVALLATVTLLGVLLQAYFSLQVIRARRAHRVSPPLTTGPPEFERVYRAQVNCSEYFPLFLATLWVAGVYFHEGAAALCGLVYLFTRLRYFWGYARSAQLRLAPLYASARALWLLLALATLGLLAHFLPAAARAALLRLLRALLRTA

Tyrosine-protein kinase Fyn, sequence (P06241 whole entry): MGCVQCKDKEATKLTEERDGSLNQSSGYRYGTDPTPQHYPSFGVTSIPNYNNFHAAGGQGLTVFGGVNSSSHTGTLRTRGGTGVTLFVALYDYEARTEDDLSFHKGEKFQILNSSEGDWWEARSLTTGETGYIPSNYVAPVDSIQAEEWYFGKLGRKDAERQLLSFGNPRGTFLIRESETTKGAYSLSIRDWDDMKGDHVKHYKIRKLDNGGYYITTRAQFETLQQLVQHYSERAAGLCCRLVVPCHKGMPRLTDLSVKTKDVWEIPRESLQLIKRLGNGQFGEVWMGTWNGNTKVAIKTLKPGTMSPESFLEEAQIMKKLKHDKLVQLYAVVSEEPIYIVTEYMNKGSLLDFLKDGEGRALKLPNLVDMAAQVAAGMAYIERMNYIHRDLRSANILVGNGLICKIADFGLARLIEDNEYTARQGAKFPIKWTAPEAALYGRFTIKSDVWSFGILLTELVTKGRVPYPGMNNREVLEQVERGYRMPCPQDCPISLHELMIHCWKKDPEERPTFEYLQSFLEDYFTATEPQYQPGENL
Nitric oxide synthase 1, sequence (P29476 whole entry): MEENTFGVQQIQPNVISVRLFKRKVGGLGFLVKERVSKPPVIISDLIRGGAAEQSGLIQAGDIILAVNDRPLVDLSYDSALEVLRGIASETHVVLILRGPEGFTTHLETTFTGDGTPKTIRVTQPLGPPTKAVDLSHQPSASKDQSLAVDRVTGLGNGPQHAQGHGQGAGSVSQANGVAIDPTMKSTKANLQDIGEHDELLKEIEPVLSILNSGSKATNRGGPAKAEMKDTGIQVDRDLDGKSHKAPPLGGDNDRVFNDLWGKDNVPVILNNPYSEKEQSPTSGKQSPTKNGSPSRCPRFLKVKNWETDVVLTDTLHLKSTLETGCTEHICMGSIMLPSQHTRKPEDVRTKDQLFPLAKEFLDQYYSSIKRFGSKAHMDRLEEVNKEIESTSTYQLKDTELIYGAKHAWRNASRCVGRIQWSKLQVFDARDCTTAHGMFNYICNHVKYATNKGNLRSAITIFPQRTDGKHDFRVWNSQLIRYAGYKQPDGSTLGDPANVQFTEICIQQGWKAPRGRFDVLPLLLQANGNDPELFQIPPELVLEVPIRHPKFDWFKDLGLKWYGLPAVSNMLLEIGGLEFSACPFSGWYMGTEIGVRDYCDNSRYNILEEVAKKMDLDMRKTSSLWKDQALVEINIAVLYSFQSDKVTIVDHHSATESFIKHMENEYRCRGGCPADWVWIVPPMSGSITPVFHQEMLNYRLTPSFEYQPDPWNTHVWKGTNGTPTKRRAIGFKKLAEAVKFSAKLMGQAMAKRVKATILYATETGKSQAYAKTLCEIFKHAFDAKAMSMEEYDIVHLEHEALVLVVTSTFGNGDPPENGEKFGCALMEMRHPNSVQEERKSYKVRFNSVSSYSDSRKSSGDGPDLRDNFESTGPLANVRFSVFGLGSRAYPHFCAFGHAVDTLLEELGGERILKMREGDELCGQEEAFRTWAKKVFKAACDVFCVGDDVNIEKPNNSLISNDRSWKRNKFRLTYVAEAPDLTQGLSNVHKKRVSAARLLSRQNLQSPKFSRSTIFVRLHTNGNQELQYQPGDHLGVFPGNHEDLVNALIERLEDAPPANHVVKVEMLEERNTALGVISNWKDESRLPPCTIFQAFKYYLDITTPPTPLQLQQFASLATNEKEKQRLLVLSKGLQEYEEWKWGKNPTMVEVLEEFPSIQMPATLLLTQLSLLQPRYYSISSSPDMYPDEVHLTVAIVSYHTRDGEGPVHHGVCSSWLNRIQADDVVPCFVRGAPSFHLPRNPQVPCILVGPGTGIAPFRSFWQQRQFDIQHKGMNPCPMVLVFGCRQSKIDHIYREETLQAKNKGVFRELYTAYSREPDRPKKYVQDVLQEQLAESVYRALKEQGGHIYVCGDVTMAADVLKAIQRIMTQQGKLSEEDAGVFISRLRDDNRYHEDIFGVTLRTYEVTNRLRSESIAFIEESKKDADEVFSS
Melanocortin receptor 4, sequence (P32245 whole entry): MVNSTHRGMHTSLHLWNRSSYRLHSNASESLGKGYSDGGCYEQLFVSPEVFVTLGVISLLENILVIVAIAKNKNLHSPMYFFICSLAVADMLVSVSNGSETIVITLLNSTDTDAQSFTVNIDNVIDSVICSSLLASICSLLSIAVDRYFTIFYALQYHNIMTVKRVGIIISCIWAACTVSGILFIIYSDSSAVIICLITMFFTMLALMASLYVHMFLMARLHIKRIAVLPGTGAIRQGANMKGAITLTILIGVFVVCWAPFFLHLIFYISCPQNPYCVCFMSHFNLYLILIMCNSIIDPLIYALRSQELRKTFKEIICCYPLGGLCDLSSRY

C[C@H](C(=O)O)c1cccc(C(=O)c2ccccc2)c1 [DEXKETOPROFEN]
Not Active: IC50 (Neutrophil elastase) | IC50 (Nitric oxide synthase 1) | IC50 [1] | IC50 (Estrogen receptor) | IC50 (Melanocortin receptor 4) | IC50 (Endothelin-1 receptor) | IC50 (Cathepsin G) | IC50 [2] | Ki [2] | IC50 (Leukotriene C4 synthase)

NC[C@@H]1O[C@H](O[C@H]2[C@@H](O)[C@H](O[C@@H]3[C@@H](O)[C@H](N)C[C@H](N)[C@H]3O[C@H]3O[C@H](CN)[C@@H](O)[C@H](O)[C@H]3N)O[C@@H]2CO)[C@H](N)[C@@H](O)[C@@H]1O [FRAMYCETIN]
Not Active: IC50 (Neutrophil elastase) | IC50 (Nitric oxide synthase 1) | IC50 [1] | IC50 (Estrogen receptor) | IC50 (Melanocortin receptor 4) | IC50 (Endothelin-1 receptor) | IC50 (Cathepsin G) | IC50 [2] | Ki [2] | IC50 (Leukotriene C4 synthase)

C[C@]12C/C(=C/O)C(=O)C[C@@H]1CC[C@@H]1[C@@H]2CC[C@@]2(C)[C@H]1CC[C@]2(C)O [OXYMETHOLONE]
Not Active: IC50 (Neutrophil elastase) | IC50 (Nitric oxide synthase 1) | IC50 [1] | IC50 (Estrogen receptor) | IC50 (Melanocortin receptor 4) | IC50 (Endothelin-1 receptor) | IC50 (Cathepsin G) | IC50 [2] | Ki [2] | IC50 (Leukotriene C4 synthase)

CCOC(=O)[C@H](CCc1ccccc1)N[C@@H](C)C(=O)N1Cc2ccccc2C[C@H]1C(=O)O
Not Active: IC50 (Neutrophil elastase) | IC50 (Nitric oxide synthase 1) | IC50 [1] | IC50 (Estrogen receptor) | IC50 (Melanocortin receptor 4) | IC50 (Endothelin-1 receptor) | IC50 (Cathepsin G) | IC50 [2] | Ki [2] | IC50 (Leukotriene C4 synthase)

CCCCC1C(=O)N(c2ccccc2)N(c2ccccc2)C1=O [PHENYLBUTAZONE]
Not Active: IC50 (Neutrophil elastase) | IC50 (Nitric oxide synthase 1) | IC50 [1] | IC50 (Estrogen receptor) | IC50 (Melanocortin receptor 4) | IC50 (Endothelin-1 receptor) | IC50 (Cathepsin G) | IC50 [2] | Ki [2] | IC50 (Leukotriene C4 synthase)

Cc1cn[nH]c1 [FOMEPIZOLE]
Not Active: IC50 (Neutrophil elastase) | IC50 (Nitric oxide synthase 1) | IC50 [1] | IC50 (Estrogen receptor) | IC50 (Melanocortin receptor 4) | IC50 (Endothelin-1 receptor) | IC50 (Cathepsin G) | IC50 [2] | Ki [2] | IC50 (Leukotriene C4 synthase)

CCOC(=O)C1=C(C)NC(C)=C(C(=O)OC)C1c1cccc(Cl)c1Cl (stereo not given) [FELODIPINE]
Not Active: IC50 (Neutrophil elastase) | IC50 (Nitric oxide synthase 1) | IC50 [1] | IC50 (Estrogen receptor) | IC50 (Melanocortin receptor 4) | IC50 (Endothelin-1 receptor) | IC50 (Cathepsin G) | IC50 [2] | Ki [2] | IC50 (Leukotriene C4 synthase)

OCCO [ETHYLENE GLYCOL]
Not Active: IC50 (Neutrophil elastase) | IC50 (Nitric oxide synthase 1) | IC50 [1] | IC50 (Estrogen receptor) | IC50 (Melanocortin receptor 4) | IC50 (Endothelin-1 receptor) | IC50 (Cathepsin G) | IC50 [2] | Ki [2] | IC50 (Leukotriene C4 synthase)

CCC[C@@H]1C[C@@H](C(=O)N[C@@H]([C@H]2O[C@H](SC)[C@H](O)[C@@H](O)[C@H]2O)[C@H](C)Cl)N(C)C1 [CLINDAMYCIN]
Not Active: IC50 (Neutrophil elastase) | IC50 (Nitric oxide synthase 1) | IC50 [1] | IC50 (Estrogen receptor) | IC50 (Melanocortin receptor 4) | IC50 (Endothelin-1 receptor) | IC50 (Cathepsin G) | IC50 [2] | Ki [2] | IC50 (Leukotriene C4 synthase)
